pIC50: −log10 of the molar value. The source made the active and inactive calls. The rule behind the calls is not given here.
Legend:
Escherichia coli [1] = experiment: Inhibition of cleavage activity of Escherichia coli DNA gyrase using relaxed pBR322 as substrate at 200 uM after 10 mins by agarose gel electrophoresis analysis relative to control
[2] = molecular target: T1, DNA topoisomerase 2-alpha (Homo sapiens, UniProt P11388); experiment: Inhibition of human topoisomerase 2 using […] as substrate after 10 mins by decatenation assay
T1 sequence (P11388 whole entry): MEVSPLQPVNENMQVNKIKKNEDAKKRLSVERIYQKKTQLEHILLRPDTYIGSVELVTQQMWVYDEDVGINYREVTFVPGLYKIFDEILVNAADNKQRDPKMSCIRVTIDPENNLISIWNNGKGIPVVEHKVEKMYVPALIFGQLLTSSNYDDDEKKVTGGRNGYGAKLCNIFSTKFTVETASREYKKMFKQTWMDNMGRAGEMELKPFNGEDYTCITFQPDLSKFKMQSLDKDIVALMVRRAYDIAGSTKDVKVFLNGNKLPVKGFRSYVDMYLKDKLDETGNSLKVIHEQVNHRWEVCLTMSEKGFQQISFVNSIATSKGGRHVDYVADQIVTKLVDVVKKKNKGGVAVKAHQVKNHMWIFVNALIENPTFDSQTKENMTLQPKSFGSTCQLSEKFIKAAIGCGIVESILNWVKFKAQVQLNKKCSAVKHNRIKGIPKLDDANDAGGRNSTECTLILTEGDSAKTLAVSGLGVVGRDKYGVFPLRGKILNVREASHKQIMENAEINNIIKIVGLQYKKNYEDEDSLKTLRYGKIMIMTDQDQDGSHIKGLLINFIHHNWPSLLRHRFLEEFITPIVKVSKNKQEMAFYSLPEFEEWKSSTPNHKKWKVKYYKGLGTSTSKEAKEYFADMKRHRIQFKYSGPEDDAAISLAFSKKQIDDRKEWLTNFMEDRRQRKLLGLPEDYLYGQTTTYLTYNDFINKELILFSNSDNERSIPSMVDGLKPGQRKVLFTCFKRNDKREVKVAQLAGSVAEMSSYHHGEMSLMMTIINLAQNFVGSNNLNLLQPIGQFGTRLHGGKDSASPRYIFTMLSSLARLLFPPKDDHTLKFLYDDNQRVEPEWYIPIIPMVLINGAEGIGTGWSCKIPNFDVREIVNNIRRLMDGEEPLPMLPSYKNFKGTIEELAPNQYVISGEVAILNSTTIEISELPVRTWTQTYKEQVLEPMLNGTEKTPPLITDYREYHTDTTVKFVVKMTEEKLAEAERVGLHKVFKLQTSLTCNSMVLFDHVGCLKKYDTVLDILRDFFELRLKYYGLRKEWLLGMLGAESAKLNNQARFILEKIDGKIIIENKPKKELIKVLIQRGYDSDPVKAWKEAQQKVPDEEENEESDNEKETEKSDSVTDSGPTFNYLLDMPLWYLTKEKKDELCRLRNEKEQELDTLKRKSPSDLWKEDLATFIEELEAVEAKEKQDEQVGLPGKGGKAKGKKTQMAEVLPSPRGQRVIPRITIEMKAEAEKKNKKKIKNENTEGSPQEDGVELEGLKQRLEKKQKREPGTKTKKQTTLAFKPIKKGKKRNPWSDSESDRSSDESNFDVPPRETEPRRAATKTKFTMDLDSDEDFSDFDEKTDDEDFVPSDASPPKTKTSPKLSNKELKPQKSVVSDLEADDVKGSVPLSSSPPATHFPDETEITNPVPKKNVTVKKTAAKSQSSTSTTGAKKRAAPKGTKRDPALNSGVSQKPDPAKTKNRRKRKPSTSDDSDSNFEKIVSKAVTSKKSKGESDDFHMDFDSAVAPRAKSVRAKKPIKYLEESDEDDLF

[3] = molecular target: T1, DNA topoisomerase 2-alpha; experiment: Inhibition of cleavage activity of human topoisomerase 2 using relaxed pBR322 as substrate at 200 uM after 10 mins by agarose gel electrophoresis analysis relative to control
Bos taurus = organism: Bos taurus; experiment: Inhibition of supercoiling activity of calf thymus topoisomerase 1 using […] as substrate after 15 mins by ethidium bromide staining
[4] = Inhibition of supercoiling activity of Escherichia coli DNA gyrase using relaxed pBR322 as substrate after 15 mins by ethidium bromide staining
Escherichia coli [5] = experiment: Inhibition of Escherichia coli DNA gyrase interaction to 5'-biotinylated DNA after 4 mins by surface plasmon resonance analysis

| SMILES | fold change (FC) (Escherichia coli [1]) | pIC50 [2] | fold change (FC) [3] | inhibition (Bos taurus) | pIC50 [4] | inhibition (Escherichia coli [5]) |
| --- | --- | --- | --- | --- | --- | --- |
| O=C(O)Cc1ccc(NC(=O)CNC(=O)CCCCCC(=O)Oc2c(-c3ccc(O)c(O)c3)oc3cc(O)cc(O)c3c2=O)cc1 | 1.8 | < 3.70 | < 1 | inactive | < 3.70 | – |
| O=C(CCCCCC(=O)Oc1c(-c2ccc(O)c(O)c2)oc2cc(O)cc(O)c2c1=O)NCC(=O)Nc1ccc(CO)cc1 | 3 | < 3.70 | 2.1 | inactive | < 3.70 | – |
| COC(=O)CCCCCCCCC(=O)Oc1c(-c2ccc(O)c(O)c2)oc2cc(O)cc(O)c2c1=O | < 1 | < 3.70 | < 1 | inactive | < 3.70 | – |
| COC(=O)/C=C/C=C/C=C/C=C/C(=O)Nc1c(O)c2ccc(O)c(Cl)c2oc1=O | – | – | – | – | 4.30 | – |
| O=c1c(O)c(-c2ccc(O)c(O)c2)oc2cc(O)cc(O)c12 | – | – | – | Active | – | – |
| O=C(CCCCCC(=O)Oc1c(-c2ccc(O)c(O)c2)oc2cc(O)cc(O)c2c1=O)NCC(=O)Nc1ccc(O)c(CO)c1 | 1.9 | 4.10 | < 1 | inactive | < 3.70 | – |
| O=C(CCCCCC(=O)Oc1c(-c2ccc(O)c(O)c2)oc2cc(O)cc(O)c2c1=O)NCC(=O)Nc1ccccc1 | 7.8 | 3.83 | 2.7 | Active | 4.31 | inactive |
| CC(=O)O[C@@H]1[C@@H](C)O[C@@H](c2ccc3c(c2O)[C@@H](O)[C@]24O[C@@]2(C3=O)[C@@]2(O)C(=O)C=C(C)C[C@@]2(O)C[C@@H]4O)C[C@H]1OC(=O)/C=C/C=C/C=C/C=C/C(=O)Nc1c(O)c2ccc(O)c(Cl)c2oc1=O [SIMOCYCLINONE D8] | < 1 | – | – | – | 6.39 | – |
| O=C(CCCCCC(=O)Oc1c(-c2ccc(O)c(O)c2)oc2cc(O)cc(O)c2c1=O)NCC(=O)Nc1ccc(O)cc1 | 5 | < 3.70 | 2.4 | Active | 4.07 | inactive |

Source: ChEMBL document CHEMBL2434911, “Flavone-based analogues inspired by the natural product simocyclinone D8 as DNA gyrase inhibitors” (Bioorg Med Chem Lett, 2013)
